Test results taken from patent publication US12421242B2, “Substituted tetrahydropyrrolo-pyridinone compounds and their use in treating medical conditions” (Karuna Therapeutics, Inc., priority 2022, dated 2025).

Columns and labels:
[1] = tested on: AMP-evoked hyperlocomotion; test: Amphetamine-evoked hyperlocomotion in rats (open field); type: in vivo; settings: adult male Sprague Dawley rats; 0.5 mg/kg amphetamine s.c.; distance traveled during the last 60 minutes of the 90-minute session
Experimental: Compounds may be tested for ability to impact behavior activity of rats according to the following procedures. Animals: Adult male, Sprague Dawley rats (Envigo, Indianapolis, IN, USA) are housed in a colony maintained at 23° C. with 12 h light/dark cycles (lights on at 0600 hours). All animals weigh 290-330 g at the beginning of the study and are equally divided into 5 groups (n=8 per group) and received one of the treatment conditions listed below. Behavioral Procedures: Studies are conducted in MedAssociates open field chambers (27.3 cm×27.3 cm×20.3 cm, MedAssociates, St. Albans, VT) in which movement is automatically tracked and recorded by 16 beam arrays. The administration pretreatment of the test article is determined to coincide with Tmax at the time of the amphetamine-evoked session with optimal route of administration. All groups are subcutaneously treated with 0.5 mg/kg amphetamine (AMP). The test article is tested in three dose groups with a half-log increase between doses. […] Locomotor data (distance traveled) is recorded as 5-minute bins throughout the 90-minute session. […] Statistical Analysis: Spontaneous locomotion (prior to AMP administration) is calculated as the total distance traveled during the first 30 minutes of the experimental session. AMP-evoked responses are calculated as the total distance traveled during the last 60 minutes of the experimental session which commenced immediately after AMP administration. Locomotor data may be analyzed by a one-way ANOVA. When there is a significant overall ANOVA, post hoc comparisons may be made by Dunnett's test with statistical significance determined as p<0.05. […] Behavioral Procedures: Studies were conducted in MedAssociates open field chambers (27.3 cm×27.3 cm×20.3 cm, MedAssociates, St. Albans, VT) in which movement was automatically tracked and recorded by 16 beam arrays. Administration pretreatment of the test article was determined to coincide with Tmax at the time of the amphetamine-evoked session with optimal route of administration. […]

rM4 receptors = biological target: T1, rM4 receptors (Rattus norvegicus, UniProt P08485); test: Rat M4 PAM pERK assay; type: cell-based; settings: PAM mode
T1 construct: expressed in transfected cells; host or cells: CHO cells
T1 sequence (P08485 1-478): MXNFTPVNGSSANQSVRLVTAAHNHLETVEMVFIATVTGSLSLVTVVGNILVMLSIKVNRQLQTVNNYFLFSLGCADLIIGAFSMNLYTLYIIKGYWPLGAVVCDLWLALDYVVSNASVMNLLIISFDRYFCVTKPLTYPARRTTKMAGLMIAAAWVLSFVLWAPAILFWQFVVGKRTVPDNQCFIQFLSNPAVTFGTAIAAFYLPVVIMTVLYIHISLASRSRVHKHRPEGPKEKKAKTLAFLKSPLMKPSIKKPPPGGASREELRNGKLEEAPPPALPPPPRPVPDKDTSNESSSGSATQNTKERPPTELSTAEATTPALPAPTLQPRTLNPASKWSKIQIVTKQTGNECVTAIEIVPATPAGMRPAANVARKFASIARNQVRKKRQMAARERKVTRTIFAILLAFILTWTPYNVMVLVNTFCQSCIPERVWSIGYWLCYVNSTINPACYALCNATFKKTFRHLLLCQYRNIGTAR
In short: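 CHO cells expressing hM4 or rM4 were serum-starved 4 h, then given compound (ten-point curve, 10 μM top, duplicate) with an EC20 of acetylcholine (10 nM final) for 5 min at 37° C. Phospho-ERK in lysates was detected by TR-FRET.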

SMILES	Dose Amount of Compound at which rats displayed a reduction in amphetamine-evoked hyperlocomotion activity [1] [mg/kg]	EC50 (rM4 receptors) [nM]
Cc1c2c(n(C)c(=O)c1Cl)CN(C(=O)c1cnn(C(F)(F)F)c1)C2 [Compound I-1, 3-chloro-1,4-dimethyl-6-(1-(Trifluoromethyl)-1H-pyrazole-4-carbonyl)-1,5,6,7-tetrahydro-2H-pyrrolo[3,4-b]pyridin-2-one]	32	500 to 2000
Cc1c2c(n(C)c(=O)c1Cl)CN(C(=O)c1cnn(C(F)(F)F)c1)[C@@H]2C [Compound I-76, (R)-3-Chloro-1,4,5-trimethyl-6-(1-(trifluoromethyl)-1H-pyrazole-4-carbonyl)-1,5,6,7-tetrahydro-2H-pyrrolo[3,4-b]pyridin-2-one]	3.2	100 to 500
COc1c2c(n(C)c(=O)c1C)CN(C(=O)c1cnn(C(F)(F)F)c1)C2 [Compound I-87]	32	> 2000
